Earlier results, collected in patent publication US12496330B2, “Methods of improving spinal fusion with abaloparatide” (Radius Health, Inc., priority 2019, dated 2025).

System: bone resorption and bone formation markers
Details: male mice; at 4-fold the current dose

SMILES: CC[C@H](C)[C@H](NC(=O)[C@H](CCC(=O)O)NC(=O)[C@H](CO)NC(=O)[C@@H](NC(=O)[C@@H](N)CO)C(C)C)C(=O)N[C@@H](CCC(N)=O)C(=O)N[C@@H](CC(C)C)C(=O)N[C@@H](CCSC)C(=O)N[C@@H](Cc1cnc[nH]1)C(=O)N[C@@H](CC(N)=O)C(=O)N[C@@H](CC(C)C)C(=O)NCC(=O)N[C@@H](CCCCN)C(=O)N[C@@H](Cc1cnc[nH]1)C(=O)N[C@@H](CC(C)C)C(=O)N[C@@H](CC(N)=O)C(=O)N[C@@H](CO)C(=O)N[C@@H](CCSC)C(=O)N[C@@H](CCC(=O)O)C(=O)N[C@@H](CCCN=C(N)N)C(=O)N[C@H](C(=O)N[C@@H](CCC(=O)O)C(=O)N[C@@H](Cc1c[nH]c2ccccc12)C(=O)N[C@@H](CC(C)C)C(=O)N[C@@H](CCCN=C(N)N)C(=O)N[C@@H](CCCCN)C(=O)N[C@@H](CCCCN)C(=O)N[C@@H](CC(C)C)C(=O)N[C@@H](CCC(N)=O)C(=O)N[C@@H](CC(=O)O)C(=O)N[C@H](C(=O)N[C@@H](Cc1cnc[nH]1)C(=O)N[C@@H](CC(N)=O)C(=O)N[C@@H](Cc1ccccc1)C(=O)O)C(C)C)C(C)C [teriparatide]
- Bone resorption markers: increased
